Laboratory results from patent US20260256746A1, “TRIAZOLES FOR USE IN THE TREATMENT OF OCULAR DISEASES” (MIRAMOON PHARMA, S.L., priority 2022, published 2026).
Values belong to the compound of their own block, whether it stands above or below them.

Assays:
rd10 mice [1] = assay: In vivo efficacy in rd10 mouse model of retinitis pigmentosa, electroretinographic (ERG) analysis; details: for retinal function measured by ERG activity: 3 μL of 20 mM solution per eye daily for 11 days, scotopic conditions, vs untreated rd10
Procedure: rd10 mice were treated by ocular instillation with phosphate buffered saline (PBS) containing the compounds of the invention (1, 35, 50, 56 and 70) for 11 days (from P14 to P24). Animals were dark adapted for 8 hours at P25 and full-field flash electroretinographic (ERG) responses were recorded with the retina illuminated with a LED-driven Ganzfeld dome. A series of light flashes of increasing intensity, from 0.001 to 10 cd s/m^2, were averaged both in scotopic (dark-adapted) and photopic (light adapted) conditions. Photopic cone responses were recorded following 5 min of light adaptation with a background white light (30 cd/m^2). Light intensity was controlled for each animal group (Mavo-Monitor USB, Gossen, Germany). The stimulation protocols were designed according to the International Society for Clinical Electrophysiology of Vision. Briefly, mice were anesthetized with intraperitoneal administration of a saline solution containing ketamine (95 mg/kg) and xylazine (5 mg/kg) and kept on a 37° C. heating pad. Ocular instillation of 1% tropicamide was applied to induce mydriasis. ERG responses were recorded from both eyes in response to a Ganzfeld stimulator under light flashes. A total of 4 to 64 consecutive stimuli were averaged, with an interval between light flashes in scotopic conditions of 10 s for dim flashes and of up to 60 s for the highest intensity for every light intensity used. For photopic conditions, a one-second interval between light flashes was used. ERG signals were amplified, and band filtered between 0.3 and 1000 Hz (CP511 AC amplifier; Grass Instruments, Quincy, MA, USA). Electrical signals were digitized at 20 kHz with a power laboratory data acquisition board (AD Instruments, Chalgrove, UK).
ERGs were performed using an electrode fixed to a corneal lens (Burian-Allen electrode; Hansen Ophthalmic Development Laboratory, Coralville, IA, USA) and a reference electrode fixed to the mouth, with a ground electrode placed in the tail. Rod-mediated responses were recorded from light flashes ranging from 0.001 to 10 cd s/m^2 with dark-adapted mice. Mixed rod- and cone-mediated signals were recorded in response to −1.5 to 1.5 log cd s/m^2 light flashes. Oscillatory potential (OP) was isolated using 11 cd s/m^2 white flashes, with a recording frequency ranging between 100 and 10,000 Hz. For recording of cone-mediated responses, we applied light flashes ranging from 0.5 to 2 log cd s/m^2 on a rod-saturating background of 30 cd s/m^2. Amplitudes of the a-wave and b-wave were averaged, using data provided by a researcher with no information regarding the experimental condition of mice.
Data correspond to a pool of 3 independent experiments (N=3) with 4-5 mice per experimental group. Data are expressed as mean+/−standard deviation. Unpaired t-test was used for statistical analysis.

[2] = Retinal biodistribution by in vivo autoradiography after ocular instillation; set-up: species or system Sprague-Dawley rats; details: 5 μL/eye of 20 mM PBS solution, autoradiography at 1, 8 and 24 h
Procedure: In order to test the bioavailability of the compounds 1, 24, 35, 53, 66 and 67 to the retina, the following species we used: mouse, rat, rabbit and swine. Animals were treated under anesthesia. In vivo autoradiography imaging was conducted at 1, 8 and 24 hours following the ocular instillation of compound [^3H]-35 (5 μL/eye) as a phosphate buffered saline (PBS) 20 mM solution under carrier added conditions (ca. 7 mBq/eye) on Sprague-Dawley rats (n=4 for each time point). After the enucleation, the eye was incubated firstly in an aqueous solution at 4% of paraformaldehyde for 4 hours, then in aqueous solution at 10% and 20% of sucrose for 2 hours each and finally in aqueous solution at 30% of sucrose for one week. All the incubations were at 4° C. The samples were fixed in OCT (optimal cutting temperature polymer) and fine 20-μm sections of eye were cut using a Leyca cryostat (Leica CM3050 S, Germany) at −24° C. The slices (20 μm thick) were disposed on glass slides (Superfrost Plus, Labolan). Autoradiography was performed in Beta Imager 2000 system (Biospace Lab, France), for 1 h on four consecutive slices of the central part of the organ where all the parts are visible (FIG. 1 A).

rd10 mice [3] = assay: Optokinetic response based on a modified Morris water maze; type: in vivo, mouse; details: daily ocular instillation for 16 days; spatial frequencies 0.01; 0.02; 0.17 and 0.35 cycles/degree
Procedure: rd10 mice were treated by ocular instillation with phosphate buffered saline (PBS) containing the compound 35 of the invention for 16 days (from P14 to P29). To study optokinetic (OKT) response, we conducted an OKT test in combination with a modified Morris water maze using 9 rd10 mice at p30: 5 treated with compound 35 and 4 untreated. Animals were adapted to the experimental conditions for 1 week before behavioral testing. Mice were trained in a square pool (70×40 cm) filled with water (24-26-C), with all sides opaque, except the frontal side, where a screen was placed. The screen was divided vertically into 2 equal parts. A pattern of moving vertical bars was presented on one half of the screen, with the other half turned off. The direction of the bars was random: 50% of the time moving to the right and 50% of the time moving to the left. The bar velocity was constant throughout the process. Mice were trained for one week to associate the area of the screen with moving bars with the presence of a submerged platform, not visible to the mice under the dim light conditions, that was placed right next to that area of the screen. The platform allowed the mice to escape from the water. […] Contrast sensitivity values were measured, and the results of treated and untreated mice were compared.

rd10 mice [4] = assay: Morphometric analysis of the retina (immunohistochemistry, rhodopsin and cone arrestin); type: in vivo, mouse; details: 3 μL of 20 mM solution per eye for 11 days; vs untreated rd10
Procedure: A detailed morphometric analysis, based on immunohistochemistry, was performed. For this purpose, rd10 mice were treated by ocular instillation with phosphate buffered saline (PBS) containing compound 35 (3 μL of 20 mM solution per eye) for 11 days (from P14 to P24). At P25 eyeballs were enucleated and fixed with 4% paraformaldehyde (in PBS) for 3 hours. The anterior segment and lens were dissected, and the eyecups were incubated in 30% sucrose (in PBS) for 12 h at 4° C. Cryosection with DAPI. ocular cryosections were stained with DAPI, rhodopsin and cone arrestin for immunohistochemical analysis. Briefly, cryosections were incubated with antibodies against rhodopsin (Millipore, MABN15) and cone arrestin (Millipore, AB15282) both at 1:400 for 8 h at 4° C. and buffered with secondary antibodies both at 1:400 and DAPI (Sigma, D89542) 1:1000 for 1 hour. The sections were analyzed by fluorescent microscopy.

[5] = Retinal biodistribution after topical ocular administration, HPLC-MS of retina (mouse); type: in vivo; details: formulated with 0.2% hyaluronic acid vs PBS solution; 4 h after single ocular instillation
Procedure: Ocular instillation with PBS solutions containing 0.2% hyaluronic acid (HA) and the selected compounds of the invention were administered: 17 μg/eye (3 μL of 20 mM solution per eye) in mouse; 65 μg/eye (10 μL of 17 mM solution per eye) in rat; and 559 μg/eye (50 μL of 40 mM solution per eye) in swine. Animals were sacrificed after 4 hours (mouse, rabbit and swine) or after 24 hours (rats) of treatment to determinate the availability of the compounds in the retina. Retinas were mechanically homogenized in physiological serum ([…]) and processed to analyze the compounds availability by HPLC-MS.

661W cells = assay: Prevention of 9-cis-Retinal and light-induced phototoxicity, impedance recording; type: cell-based; details: Mus musculus, light or radiation study, 20 μM 9-cis-Retinal, 30,000 luxes white light, impedance converted to percentage of cytolysis, read-out: EC50 of protection against phototoxicity
Procedure: 661W cells were seeded onto 96-wells MEA impedance plates (50,000 cells/well) and grown until confluence in the Maestro Edge equipment (Axion Biosystems) at 37° C. and 5% CO2. When impedance reaches a plateau, phototoxicity is induced by addition of 20 μm 9-cis retinal and 30,000 luxes of white light. Increasing concentrations of compound 35 were added (A). Impedance was recorded every minute for 24 hours and was converted to percentage of cytolysis (B). 661 W cells were seeded in a 96-wells impedance plate (50,000 cells/well), previously coated with ECM 1:100, and grown O/N at 37° C. and 5% CO2 in DMEM/F-12 (Thermo Fisher, 11320033) supplemented with 40 μL/L hydrocortisone 21-hemisuccinate (Sigma, H-2270), 40 μL/L progesterone (Sigma, P-8783), 0.032 g/L putrescine (Sigma, P-7505), 40 μL/L β-mercaptoethanol (Sigma, M-6250), antibiotic-antimycotic solution (Sigma, A5955) and 10% fetal bovine serum (FBS). After 8 h, the medium was replaced by DMEM/F-12 without FBS or complements to remove cellular debris. When cells arrived at a plateau in the impedance recording (4-8 hours after the medium change, depending on the culture plate) compound 35 was added and two hours later the 9-cis-Retinal (Cf=20 μM) was added. The cells were placed in the Maestro Z and exposed to 30,000 white light luxes. to register the impedance.

Compound: CC(C)c1ccc(S(=O)(=O)Cc2cn(CCN3CCOCC3)nn2)cc1 [Compound 70, 4-[(4-isopropylphenyl)sulfonylmethyl]-1-[2-(4-morpholinyl)ethyl]-1H,1,2,3-triazole]
retinal function measured by ERG activity (rd10 mice [1]): increased retinal function

Compound: COc1ccc(SCc2cn(CCCNC(=N)NC(=N)N)nn2)cc1 [Compound 50, 1-[3-(biguanidinyl)propyl]-4-[(4-methoxyphenyl)thiomethyl]-1H-1,2,3-triazole]
retinal function measured by ERG activity (rd10 mice [1]): increased retinal function

Compound: [O-][S+](Cc1cn(CCN2CCCCC2)nn1)c1cccc(C(F)(F)F)c1 (stereo not shown) [Compound 56, 1-[2-(piperidin-1-yl)ethyl]-4-[(3-trifluoromethylphenyl)sulfinylmethyl]-1H-1,2,3-triazole]
retinal function measured by ERG activity (rd10 mice [1]): increased retinal function

The next lines start with results.

time after administration up to which compound was detected in rat retina [2]: up to 24 h | time of peak concentration in rat retina [2]: around 8 h
Compound: [3H]c1c(CSc2ccc(OC)cc2)nnn1CCN(C)C [Compound 52, 1-[2-(N,N-dimethylamino)ethyl]-5-trithium-4-[(4-methoxyphenyl)thiomethyl]-1H-1,2,3-triazole]

retinal function measured by ERG activity (rd10 mice [1]): increased retinal function
Compound: COc1ccc(OCc2cn(CCN(C)C)nn2)cc1 [Compound 1, 1-[2-(N,N-dimethylamino)ethyl]-4-[(4-methoxyphenoxy)methyl]-1H-1,2,3-triazole]

cone function: recovery score vs. WT (rd10 mice [1]; 0.2 cd s/m^2 light intensity): 78% | cone function: increase of ERG amplitude (rd10 mice [1]; 0.2 cd s/m^2 light intensity, vs rd10 control group): 66% | retinal function measured by ERG activity (rd10 mice [1]): increased retinal function | delivery percentage to the mouse retina (percentage of administered dose per gram of retina) [5]: higher delivery percentage
Compound: COc1ccc(SCc2cn(CCN(C)C)nn2)cc1 [Compound 35, 1-[2-(N,N-dimethylamino)ethyl]-4-[(4-methoxyphenyl)thiomethyl]-1H-1,2,3-triazole]
contrast sensitivity (visual acuity), treated vs untreated (rd10 mice [3]): greatest differences were observed in the outlier values of spatial frequency | preservation of photoreceptors (number of rods and cones per square mm, rod outer and inner segment) (rd10 mice [4]): significant preservation of photoreceptors | EC50 (661W cells): 30.5 nM
